Source: patent US10202371B2, “Oxazolidin-2-one-pyrimidine derivatives and the use thereof as phosphatidylinositol-3-kinase inhibitors” (Novartis AG, priority 2012, dated 2019)

Columns and labels:
human PI3Kβ = human PI3Kβ (Homo sapiens (Human), UniProt P42338); assay: Biochemical assay PI3Kbeta (KinaseGlo luminescence); conditions: 1 μM ATP, read-out: PI3Kb/IC50
From the text: Cancer Ther. accepted). […] (L-alpha-phosphatidylinositol (PI), Liver, Bovine) were obtained from Avanti Polar Lipid (Cat. […] (Avanti, Cat. No. 840046X) or L-α-phosphatidylinositol (PI) was obtained from Avanti Polar Lipid (Cat. […] Luminescence is a well established readout to determine ATP concentrations and can thus be used to follow the activity of many kinases regardless of their substrate. The Kinase Glo Luminescent Kinase Assay (Promega, Madison/WI, USA) is a homogeneous HTS method of measuring kinase activity by quantifying the amount of ATP remaining in solution following a kinase reaction. 50 nL of compound dilutions were dispensed onto black 384-well low volume Non Binding Styrene (NBS) plates (Costar Cat. No. […] L-α-phosphatidylinositol (PI), provided as 10 mg/ml solution in methanol, was transferred into a glass tube and dried under nitrogen beam. […] NVP-BGT226 was used as a reference compound and included in all assay plates in the form of 16 dilution points in duplicate. […] All fits were performed with the program XLfit4 (ID Business Solutions, Guildford, UK).

PI3Kgamma = PI3Kgamma (Homo sapiens (Human), UniProt P48736); assay: Biochemical assay PI3Kgamma (Adapta TR-FRET); conditions: read-out: PI3Kg/IC50
From the text: The TR-FRET Adapta™ Universal Kinase Assay Kit was purchased from Invitrogen
Corporation (Carlsbad/CA, USA) (Cat. No. PV5099). The kit contains the following reagents: Adapta Eu-anti-ADP Antibody (Europium labeled anti-ADP antibody in HEPES buffered saline, Cat. No. PV5097), Alexa Fluor® 647-labeled ADP tracer (Alexa Fluor® 647-labeled ADP tracer in HEPES buffered saline, Cat. No. PV5098), proprietary TR-FRET dilution buffer pH 7.5 (Cat. No. PV3574).
PIK3CD substrate Phosphatidylinositol was obtained from Invitrogen (vesicules consisting of 2 mM PI in 50 mM HEPES pH7.5; Cat. No. PV5371).
Time-Resolved Fluorescence Resonance Energy Transfer (TR-FRET) is a technology based on energy transfer between two adjacent dyes, from an excited electron in one dye (the donor) to an electron of an adjacent dye (the acceptor) through resonance, then released as a photon. This energy transfer is detected by an increase in the fluorescence emission of the acceptor, and a decrease in the fluorescence emission of the donor. TR-FRET assays for protein kinases use a long-lifetime lanthanide Terbium or Europium chelates as the donor species which overcome interference from compound autofluorescence or light scatter from precipitated compounds, by introducing a delay after excitation by a flashlamp excitation source. Results are often expressed as a ratio of the intensities of the acceptor and donor fluorophores. The ratiometric nature of such a value corrects for differences in assay volumes between wells, as well as corrects for quenching effects due to colored compounds. The Adapta™ assay can be divided into two phases: a kinase reaction phase and an ADP detection phase. In the kinase reaction phase, all kinase reaction components are added to the well and the reaction is allowed to incubate for a set period of time specific for each kinase. After the reaction, a detection solution of Eu-labeled anti-ADP antibody, Alexa Fluor® 647-labeled ADP tracer, and EDTA (to stop the kinase reaction) are added to the assay well. ADP formed by the kinase reaction will displace the Alexa Fluor® 647-labeled ADP tracer from the antibody, resulting in a decrease in TR-FRET signal. In the presence of an inhibitor, the amount of ADP formed by the kinase reaction is reduced, and the resulting intact antibody-tracer interaction maintains a high TR-FRET signal. In the Adapta™ assay, the donor (Europium-anti-ADP antibody) is excited at 340 nm and will transfer its energy to the acceptor (Alexa Fluor® 647-labeled ADP tracer). The emission from the Alexa Fluor® 647 can be monitored with a filter centered at 665 nm because it is located between the emission peaks of the donor, which is measured at 615/620 nm.
50 nL of compound dilutions were dispensed onto white 384-well small volume polystyrene plate as described in section 2.2. Then 5 μL of PI3Kg and PI3Kd and lipid substrate (PI or PIP2:PS) followed by 5 μL of ATP (final assay volume 10 μL) are incubated at RT. The standard reaction buffer for the Adapta™ TR-FRET assay contained 10 mM Tris-HCl pH 7.5, 3 mM MgCl2, 50 mM NaCl, 1 mM DTT, 0.05% CHAPS. Reactions were stopped with 5 μL of a mixture of EDTA containing the Eu-labeled anti-ADP antibody and the Alexa Fluor® 647-labeled ADP tracer in TR-FRET dilution buffer (proprietary to IVG). Plates are read 15 to 60 mins later in a Synergy2 reader using an integration time of 0.4 seconds and a delay of 0.05 seconds. […] The standard compound NVP-BGT226 was used as a reference compound and included in all assay plates in the form of 16 dilution points in duplicate.
Data are analyzed using Excel fit software or Graphpad Prism. EC50 values were derived by fitting a sigmoidal dose-response curve to a plot of assay readout over inhibitor concentration. All fits were performed with the program XLfit4 (ID Business Solutions, Guildford, UK). […] All fits were performed with the program XLfit4 (ID Business Solutions, Guildford, UK).

PI3Kgamma, sequence (P48736 whole entry, species assumed): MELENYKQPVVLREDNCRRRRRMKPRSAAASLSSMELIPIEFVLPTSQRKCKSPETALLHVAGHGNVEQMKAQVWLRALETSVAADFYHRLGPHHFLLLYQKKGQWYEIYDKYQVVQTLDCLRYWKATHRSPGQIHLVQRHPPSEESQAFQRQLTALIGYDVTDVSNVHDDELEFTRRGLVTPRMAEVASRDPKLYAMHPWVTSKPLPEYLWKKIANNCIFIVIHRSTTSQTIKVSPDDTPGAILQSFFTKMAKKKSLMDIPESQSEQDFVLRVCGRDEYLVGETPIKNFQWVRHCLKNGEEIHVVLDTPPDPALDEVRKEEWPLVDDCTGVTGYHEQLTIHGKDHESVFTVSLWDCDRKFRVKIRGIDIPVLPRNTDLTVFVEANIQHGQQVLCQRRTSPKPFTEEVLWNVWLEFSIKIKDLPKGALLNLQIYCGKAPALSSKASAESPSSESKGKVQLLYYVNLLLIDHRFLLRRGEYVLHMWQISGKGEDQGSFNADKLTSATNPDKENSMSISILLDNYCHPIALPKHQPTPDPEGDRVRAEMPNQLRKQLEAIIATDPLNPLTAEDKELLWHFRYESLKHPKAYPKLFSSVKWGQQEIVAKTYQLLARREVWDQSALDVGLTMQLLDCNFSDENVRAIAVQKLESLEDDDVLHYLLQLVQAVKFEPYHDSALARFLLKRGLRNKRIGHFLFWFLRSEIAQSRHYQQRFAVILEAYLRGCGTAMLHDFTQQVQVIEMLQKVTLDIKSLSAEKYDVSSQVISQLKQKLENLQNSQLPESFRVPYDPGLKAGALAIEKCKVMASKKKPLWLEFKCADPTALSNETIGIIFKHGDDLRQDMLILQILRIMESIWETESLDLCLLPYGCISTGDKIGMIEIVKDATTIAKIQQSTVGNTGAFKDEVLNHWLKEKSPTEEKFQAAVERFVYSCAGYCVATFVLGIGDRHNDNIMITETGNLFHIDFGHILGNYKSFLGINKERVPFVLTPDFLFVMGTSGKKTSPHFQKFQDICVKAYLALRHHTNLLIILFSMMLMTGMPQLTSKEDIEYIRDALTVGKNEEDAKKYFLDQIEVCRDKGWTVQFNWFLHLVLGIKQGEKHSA
human PI3Kβ, sequence (P42338 2-1070): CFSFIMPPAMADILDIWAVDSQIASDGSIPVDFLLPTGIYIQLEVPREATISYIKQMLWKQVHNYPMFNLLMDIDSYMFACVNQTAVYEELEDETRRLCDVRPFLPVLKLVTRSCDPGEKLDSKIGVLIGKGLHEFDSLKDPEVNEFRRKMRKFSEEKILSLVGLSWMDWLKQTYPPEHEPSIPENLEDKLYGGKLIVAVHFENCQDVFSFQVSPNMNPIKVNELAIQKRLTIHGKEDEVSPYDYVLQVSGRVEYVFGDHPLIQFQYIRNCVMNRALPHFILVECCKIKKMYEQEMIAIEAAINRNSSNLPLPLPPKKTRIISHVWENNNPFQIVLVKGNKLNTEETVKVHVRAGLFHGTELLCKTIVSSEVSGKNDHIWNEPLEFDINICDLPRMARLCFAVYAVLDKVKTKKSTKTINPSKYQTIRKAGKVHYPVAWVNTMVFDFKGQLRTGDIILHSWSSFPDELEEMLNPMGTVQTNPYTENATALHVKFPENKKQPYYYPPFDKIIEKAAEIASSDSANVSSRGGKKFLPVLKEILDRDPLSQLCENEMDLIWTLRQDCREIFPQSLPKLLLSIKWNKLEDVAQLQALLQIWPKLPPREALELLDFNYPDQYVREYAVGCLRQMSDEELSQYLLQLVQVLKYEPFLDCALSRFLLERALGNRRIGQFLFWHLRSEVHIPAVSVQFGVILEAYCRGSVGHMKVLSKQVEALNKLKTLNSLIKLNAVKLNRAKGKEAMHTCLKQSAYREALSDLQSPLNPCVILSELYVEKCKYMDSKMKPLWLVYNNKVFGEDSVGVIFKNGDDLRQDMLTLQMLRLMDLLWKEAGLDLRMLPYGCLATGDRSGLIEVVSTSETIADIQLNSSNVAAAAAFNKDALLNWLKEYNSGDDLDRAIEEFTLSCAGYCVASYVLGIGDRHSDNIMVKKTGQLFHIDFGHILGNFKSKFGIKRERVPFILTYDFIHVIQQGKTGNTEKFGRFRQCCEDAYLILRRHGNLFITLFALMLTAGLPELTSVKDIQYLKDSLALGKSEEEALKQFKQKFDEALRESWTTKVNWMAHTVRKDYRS

Structure (SMILES) | IC50 (human PI3Kβ) | IC50 (PI3Kgamma)
CCC1C(c2cccnc2)OC(=O)N1c1cc(-c2cnc(N)nc2C(F)(F)F)nc(N2CCOCC2)n1 (stereo not shown) [Example 8] | 67 nM | 580 nM
Nc1ncc(-c2cc(N3C(=O)O[C@@H](c4ccc(OCCCO)cc4)[C@@H]3CO)nc(N3CCOCC3)n2)c(C(F)(F)F)n1 [Example 14] |  | 27 nM
COCCOc1ccc([C@@H]2OC(=O)N(c3cc(-c4cnc(N)nc4C(F)(F)F)nc(N4CCOCC4)n3)[C@H]2CO)cc1 [Example 12] |  | 135 nM
COc1ccc([C@@H]2OC(=O)N(c3cc(-c4cnc(N)nc4C(F)(F)F)nc(N4CCOCC4)n3)[C@H]2CO)cc1 [Example 3, (4S,5S)-3-(2′-Amino-2-morpholino-4′-(trifluoromethyl)-[4,5′-bipyrimidin]-6-yl)-4-(hydroxymethyl)-5-(4-methoxyphenyl)oxazolidin-2-one] | 7 nM | 110 nM
C[C@H]1[C@H](c2ccccc2)OC(=O)N1c1cc(-c2cnc(N)nc2C(F)(F)F)nc(N2CCOCC2)n1 [Example 5] |  | 3500 nM
Nc1ncc(-c2cc(N3C(=O)O[C@@H](c4ccccc4)[C@@H]3CO)nc(N3CCOCC3)n2)c(C(F)(F)F)n1 [Example 10] | 5 nM | 343 nM
CC[C@H]1[C@H](c2nccs2)OC(=O)N1c1cc(-c2cnc(N)nc2C(F)(F)F)nc(N2CCOCC2)n1 [Example 7] |  | 3000 nM
C[C@H]1[C@H](c2nccs2)OC(=O)N1c1cc(-c2cnc(N)nc2C(F)(F)F)nc(N2CCOCC2)n1 [Example 1, (4S,5R)-3-(2′-Amino-2-morpholin-4-yl-4′-trifluoromethyl-[4,5′]bipyrimidinyl-6-yl)-4-methyl-5-thiazol-2-yl-oxazolidin-2-one] | 9 nM | 92 nM
CC1C(c2cccnc2)OC(=O)N1c1cc(-c2cnc(N)nc2C(F)(F)F)nc(N2CCOCC2)n1 (stereo not shown) [Example 9] |  | 230 nM
CC[C@H]1[C@H](c2ccc(OC)cc2)OC(=O)N1c1cc(-c2cnc(N)nc2C(F)(F)F)nc(N2CCOCC2)n1 (relative stereo) [Example 2, (4S*,5S*)-3-(2′-amino-2-morpholino-4′-(trifluoromethyl)-[4,5′-bipyrimidin]-6-yl)-4-ethyl-5-(4-methoxyphenyl)oxazolidin-2-one] | 96 nM | 5800 nM
C[C@H]1[C@@H](c2nccs2)OC(=O)N1c1cc(-c2cnc(N)nc2C(F)(F)F)nc(N2CCOCC2)n1 [Example 11] | 10 nM | 102 nM
Nc1ncc(-c2cc(N3C(=O)O[C@@H](c4ccc(OCCO)cc4)[C@@H]3CO)nc(N3CCOCC3)n2)c(C(F)(F)F)n1 [Example 13] | 11 nM | 100 nM
